32 compounds from patent publication US20220213061A9, “HETEROCYCLIC COMPOUNDS FOR MODULATING NR2F6” (TES Pharma S.r.l., priority 2020, published 2022) can be followed below.

Structures can show the parent of a compound that is named as a salt.

For this assay, the target named is T1, recombinant human NR2F6 protein (Homo sapiens, UniProt P10588).
T1 sequence (P10588 1-404): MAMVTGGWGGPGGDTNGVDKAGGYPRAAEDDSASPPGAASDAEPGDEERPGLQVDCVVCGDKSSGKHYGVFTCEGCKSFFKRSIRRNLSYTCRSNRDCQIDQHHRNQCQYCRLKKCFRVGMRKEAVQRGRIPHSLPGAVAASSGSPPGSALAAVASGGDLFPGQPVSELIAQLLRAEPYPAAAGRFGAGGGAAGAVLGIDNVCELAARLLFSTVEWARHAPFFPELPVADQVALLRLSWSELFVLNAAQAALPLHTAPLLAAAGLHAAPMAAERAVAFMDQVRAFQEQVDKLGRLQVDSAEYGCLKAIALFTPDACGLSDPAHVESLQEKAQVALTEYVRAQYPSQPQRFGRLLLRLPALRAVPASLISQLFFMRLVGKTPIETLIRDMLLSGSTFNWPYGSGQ
As to the kind of experiment: Biochemical NR2F6 binding assay (EnSpire label-free). The conditions noted are these: label-free binding to immobilized purified recombinant human NR2F6; ligands 1 nM to 100 uM, 1% DMSO. The protocol:
Purified recombinant human NR2F6 protein was dissolved in immobilization buffer at pH 4.5 and then immobilized in EnSpire-LFB High-Sensitivity User-Activated Plates at the concentration of 50 μg/well plate and left in incubation for 16 h at 4° C. Wells with only immobilization buffer were used as negative control to check the protein coating efficiency. NR2F6 ligands were resuspended in DMSO at the concentration of 10 mM, then dispensed into a plate containing assay buffer at concentrations ranging from 1 nM to 100 uM using an HP-dispenser. DMSO was normalized at the 1% of volume of each well. The final readings were taken over a period of 30 minutes. The label-free responses were measured as shifts in reflected wavelength and are expressed in picometers (pm). Results were analyzed using the EnSpire label-free user interface software, and EC50 and graphs were generated using GraphPad PRISM software. In the tables below, A is <1 μM; B is 1 to 10 μM; C is 10 to 50 μM; and D is >50 μM.
A word on the EC50: it is the midpoint of the concentration-response curve. For `CN(C(=O)[C@@H]1CNC[C@H]1c1ccccc1)c1cccc(-c2cccnc2)c1` (racemic) [Compound I-47, (±)-trans-N-Methyl-4-phenyl-N-[3-(pyridin-3-yl)phenyl]pyrrolidine-3-carboxamide], the EC50 is over 50 µM. With `N#Cc1ccc(Oc2cccc(NC(=O)[C@H]3CNC[C@@H]3c3ccccc3)c2)cc1` (racemic) [Compound I-90, (±)-trans-N-[3-(4-Cyanophenoxy)phenyl]-4-phenylpyrrolidine-3-carboxamide hydrochloride], the EC50 was under 1 µM. Take `O=C(Nc1ccc(C2CCCCC2)cc1)[C@@H]1CNC[C@H]1c1ccccc1` (racemic) [Compound I-87, (±)-trans-N-(4-Cyclohexylphenyl)-4-phenylpyrrolidine-3-carboxamide hydrochloride]: the concentration for a half-maximal effect (EC50) lay within 1 to 10 µM. For `CN1CCC(CNC(=O)[C@H]2CNC[C@@H]2c2ccccc2)CC1` [Compound I-35, (3R,4S)—N-[(1-Methylpiperidin-4-yl)methyl]-4-phenylpyrrolidine-3-carboxamide dihydrochloride], the concentration giving a half-maximal response (EC50) is over 50 µM. Under `O=C(Nc1cccc(Oc2ccccc2)c1)[C@H]1CNC[C@@H]1c1ccccc1` (racemic) [Compound I-69, (±)-trans-N-(3-Phenoxyphenyl)-4-phenylpyrrolidine-3-carboxamide hydrochloride] stands under 1 µM. As for `O=C(Nc1cccc(-c2ccccc2)c1)[C@@H]1CNC[C@H]1c1cccc(F)c1` (racemic) [Compound I-27, (±)-trans-N-(Biphenyl-3-yl)-4-(3-fluorophenyl)pyrrolidine-3-carboxamide hydrochloride], the EC50 was over 50 µM. Under `S=C(Nc1cccc2cnccc12)N[C@@H]1CN(Cc2ccccc2)C[C@H]1c1ccccc1` (racemic) [Compound I-6, (±)-trans-1-Isoquinolin-5-yl-3-(1-benzyl-4-phenylpyrrolidin-3-yl)thiourea] stands 1 to 10 µM; under `O=C(Nc1cccc(Nc2ccccc2)c1)[C@H]1CNC[C@@H]1c1ccccc1` [Compound I-113, (3R,4S)-4-Phenyl-N-[3-(phenylamino)phenyl]pyrrolidine-3-carboxamide hydrochloride], 1 to 10 µM; under `O=C(c1ccccc1)c1cccc(NC(=O)[C@H]2CNC[C@@H]2c2ccccc2)c1` (racemic) [Compound I-94, (±)-trans-4-Phenyl-N-[3-(phenylcarbonyl)phenyl]pyrrolidine-3-carboxamide hydrochloride], 1 to 10 µM. Regarding `O=C(Nc1cccc2ccccc12)[C@@H]1CNC[C@H]1c1ccccc1` (racemic) [Compound I-16, (±)-trans-N-(Naphthalen-1-yl)-4-phenylpyrrolidine-3-carboxamide hydrochloride], the EC50 lay in the range of 1 to 10 µM. Under `O=C(Nc1ccc(-c2ccc(F)nc2)cc1)[C@@H]1CNC[C@H]1c1ccccc1` [Compound I-108, (3S,4R)—N-[4-(6-Fluoropyridin-3-yl)phenyl]-4-phenylpyrrolidine-3-carboxamide dihydrochloride] stands under 1 µM; under `O=C(Nc1ccc(Oc2cccnc2)cc1)[C@H]1CNC[C@@H]1c1ccccc1` (racemic) [Compound I-70, (±)-trans-4-Phenyl-N-[4-(pyridin-3-yloxy)phenyl]pyrrolidine-3-carboxamide dihydrochloride], over 50 µM. Under `Cc1ccc(O[C@H]2C[C@H](NC(=O)[C@H]3CNC[C@@H]3c3ccccc3)C2)cn1` (racemic) [Compound I-102, (±)-trans-N-{trans-3-[(6-Methylpyridin-3-yl)oxy]cyclobutyl}-4-phenylpyrrolidine-3-carboxamide dihydrochloride] stands 1 to 10 µM; under `O=C(Nc1cccc2ocnc12)[C@H]1CNC[C@@H]1c1ccccc1` (racemic) [Compound I-76, (±)-trans-N-(1,3-Benzoxazol-4-yl)-4-phenylpyrrolidine-3-carboxamide dihydrochloride], over 50 µM. As to `O=C(Nc1cc2ccccc2cn1)[C@H]1CNC[C@@H]1c1ccccc1` [Compound I-38, (3R,4S)—N-(Isoquinolin-3-yl)-4-phenylpyrrolidine-3-carboxamide dihydrochloride], the EC50 lay in the range of 1 to 10 µM. As for `Cc1cccc(Oc2cccc(NC(=O)[C@H]3CNC[C@@H]3c3ccccc3)c2)c1` (racemic) [Compound I-97, (±)-trans-4-Phenyl-N-[3-(3-methylphenoxy)phenyl]pyrrolidine-3-carboxamide hydrochloride], the EC50 lay in the range of 1 to 10 µM. With `O=C(Nc1cccc2cnccc12)[C@H]1CNC[C@@H]1c1ccccc1` [Compound I-29, (3R,4S)—N-(Isoquinolin-5-yl)-4-phenylpyrrolidine-3-carboxamide], the EC50 was under 1 µM.

With `Cc1ccc(O[C@H]2C[C@H](NC(=O)[C@@H]3CNC[C@H]3c3ccccc3)C2)cc1` (racemic) [Compound I-115, (±)-trans-N-[trans-3-(4-Methylphenoxy)cyclobutyl]-4-phenylpyrrolidine-3-carboxamide hydrochloride], the EC50 lay in the range of 1 to 10 µM. `O=C(Nc1nccc2ccccc12)[C@@H]1CNC[C@H]1c1ccccc1` (racemic) [Compound I-12, (±)-trans-N-(Isoquinolin-1-yl)-4-phenylpyrrolidine-3-carboxamide dihydrochloride]: the EC50 was over 50 µM. Under `O=C(NC1CCN(c2ccc(F)cc2)CC1)[C@@H]1CNC[C@H]1c1ccccc1` [Compound I-121, (3S,4R)-3-{[1-(4-Fluorophenyl)Ipiperidin-4-yl]carbamoyl]}-4-phenylpyrrolidine dihydrochloride] stands 1 to 10 µM. As to `O=C(Nc1cccc(Nc2ccccc2)c1)[C@@H]1CNC[C@H]1c1ccccc1` [Compound I-114, (3S,4R)-4-Phenyl-N-[3-(phenylamino)phenyl]pyrrolidine-3-carboxamide hydrochloride], the EC50 was in the range of 1 to 10 µM.

On to `O=C(NCc1ccccc1)[C@H]1CNC[C@@H]1c1ccccc1` [Compound I-33, (3R,4S)—N-Benzyl-4-phenylpyrrolidine-3-carboxamide hydrochloride], for which the EC50 lay in the range of 10 to 50 µM. The same measure for `O=C(Nc1cccc(-c2cccnc2)c1)[C@@H]1CNC[C@H]1C1CCOCC1` (racemic) [Compound I-50, (±)-trans-N-[3-(Pyridin-3-yl)phenyl]-4-(tetrahydro-2H-pyran-4-yl)pyrrolidine-3-carboxamide dihydrochloride]: over 50 µM.

Take `O=C(NC1CN(c2ccc(F)cc2)C1)[C@@H]1CNC[C@H]1c1ccccc1` [Compound I-118, (3S,4R)-4-Phenyl-N-(1-4-fluorophenylazetidin-3-yl)pyrrolidine-3-carboxamide hydrochloride]: the EC50 was under 1 µM. In the case of `O=C([C@@H]1CNC[C@H]1c1ccccc1)N1CC(c2cccnc2)C1` (racemic) [Compound I-48, (±)-trans-(4-Phenylpyrrolidin-3-yl)[3-(pyridin-3-yl)azetidin-1-yl]methanone dihydrochloride], the EC50 is over 50 µM. In the case of `O=S(=O)(N[C@@H]1CNC[C@H]1c1ccccc1)c1cccc2cnccc12` (racemic) [Compound I-8, (±)-trans-N-(4-Phenylpyrrolidin-3-yl)isoquinoline-5-sulfonamide], the EC50 is over 50 µM.

`CN1C[C@@H](C(=O)Nc2cccc(-c3cccnc3)c2)[C@H](c2ccccc2)C1` (racemic) [Compound I-46, (±)-trans-1-Methyl-4-phenyl-N-[3-(pyridin-3-yl)phenyl]pyrrolidine-3-carboxamide]: the EC50 is over 50 µM. As to `O=C(Nc1cccc2cnccc12)C1=C(c2ccccc2)CNC1` [Compound I-1, N-(Isoquinolin-5-yl)-4-phenyl-2,5-dihydro-1H-pyrrole-3-carboxamide], the 50% effective concentration (EC50) was 10 to 50 µM. Under `O=C(Nc1cccc(-c2cccnc2)c1)[C@@H]1CNC[C@H]1c1cccs1` (racemic) [Compound I-49, (±)-trans-N-[3-(Pyridin-3-yl)phenyl]-4-(thiophen-2-yl)pyrrolidine-3-carboxamide dihydrochloride] stands over 50 µM; under `O=C(NCc1cccc2cnccc12)[C@H]1CNC[C@@H]1c1ccccc1` [Compound I-67, (3R,4S)—N-(Isoquinolin-5-ylmethyl)-4-phenylpyrrolidine-3-carboxamide dihydrochloride], over 50 µM; under `O=C(Nc1cccc2ccccc12)[C@H]1CNC[C@@H]1c1ccccc1` [Compound I-74, (3R,4S)—N-(Naphthalen-1-yl)-4-phenylpyrrolidine-3-carboxamide hydrochloride], 1 to 10 µM. Under `O=C(Nc1cccc(-c2cccnc2)c1)[C@H]1CNC[C@@H]1C1CCCCC1` (racemic) [Compound I-71, (±)-trans 4-Cyclohexyl-N-[3-(pyridin-3-yl)phenyl]pyrrolidine-3-carboxamide dihydrochloride] stands 1 to 10 µM.
